The test system of test [1] is PBMCs of healthy adults reactive to the anti-HLA-A*24 antibody. Briefly: Induction of specific CTLs from PBMCs, method for quantifying cells producing intracellular IFNγ. As to conditions: for peptide-specific cytokine production in PBMCs derived from ten people with HLA-A*24 molecule: summary of Table 2; for CD8-positive, IFNγ-positive cells in UR: HIV peptides added for restimulation as negative control. The test is classed as cell-based, human. More on the design: key to specific CTL induction, cytokine quantification method: ∘: “open circle” indicates that the use of a candidate peptide enabled specific CTLs to be induced; x: “cross” indicates that specific CTLs was unable to be induced. The method, then: This induction method induces CTLs by adding peptides to culture media of PBMCs. Peptides are presented on antigen-presenting cells present among PBMCs, such as dendritic cells, B cells, macrophages, and certain types of T cells, whereby CTL precursor cells in PBMCs are stimulated to proliferate.
Peripheral blood collected from healthy adults that were reactive to the anti-HLA-A*24 antibody was centrifuged at 3,000 rpm for 5 to 10 minutes. The resulting supernatant plasma was collected. The non-plasma portion was processed according to a conventional method to isolate PBMCs. The characteristic of the present method is the addition of several % of plasma to an induction medium. In the present invention, a favorable result was obtained by adding 5% plasma. The medium is prepared by adding appropriate additives and antibiotics to a medium commonly used for cell culture. The CTL induction medium used in the present invention was RPMI1640 Hepes modify (Sigam) supplemented with 2-mercapotethanol, L-glutamine, and the antibiotics streptomycin and penicillin. In addition to these, insulin, transferrin, selenious acid, pyruvic acid, human serum albumin, solution of non-essential amino acids, and the like may be added. 1 to 3×10^6 PBMCs were suspended in 1 to 2.5 ml of the culture medium. A candidate peptide was added to the cells at a concentration of 1 to 20 μg/ml. The concentration of peptide can be altered depending on the solubility of the peptide. The peptide was added at 10 μg/ml. After two days, IL-2 was added at a final concentration of 20 to 100 U/ml. Round-bottomed culture dishes that allow the exchange of carbon dioxide gas are preferably used to co-culture PBMCs with peptides. In the context of the present invention, 14-ml round-bottomed polypropylene tubes (Becton Dikinson) or 96-well U-bottomed cell culture microtest plates (Becton Dikinson) were used. The adenovirus-specific CTLs were confirmed after about two and four weeks of culture. The cells were stimulated again with the peptide at 10 μg/ml after about two weeks of culture. When the induction of adenovirus-specific CTLs was confirmed, the cells were further stimulated with peptide-pulsed antigen-presenting cells to establish CTL lines.
Approximately 1/10 to all of the cells induced by the above-described method were transferred into 96-well U-bottomed cell culture microtest plates, and the peptide used for the induction was added thereto at a final concentration of 0.01 to 0.05 μg/ml. Then, an intracellular protein transport inhibitor (for example, brefeldin A, monensin, or such) was added, and the cells were cultured in a 5% CO2 incubator at 37° C. for 5 to 16 hours. After culture, the cells were washed, and phycoerythrin (PE)-labeled MHC-tetramer reagent and phycoerythrin-Cy5(PC5)-labeled CD8 antibody (Beckman Coulter) were added thereto. The resulting mixture was allowed to stand at room temperature for 15 to 30 minutes. After washing, the cells were fixed with 4% formaldehyde at 4° C. for 15 minutes and washed with an excess amount of washing solution. After membrane permeabilization treatment with 0.1% saponin, an FITC-labeled anti-IFNγ antibody (Beckman Coulter) was added, and reacted at room temperature for 15 to 30 minutes. After washing, the proportion of IFNγ-positive cells in T cells or MHC-tetramer reagent-positive cells was determined using a flow cytometer.
PBMCs derived from ten people with HLA-A*24 molecule were tested using 10 types of peptides. […] Thus, these six types of candidate epitope peptides serve as adenovirus-specific CTL epitope peptides. Since the adenovirus-specific CTL epitope peptides have the HLA-A*24-binding motif, they are likely to be HLA-A*2402-restricted epitope peptides, which are carried by 60% or more of the Japanese people. In the context of the results described above, MHC-tetramer reagents were synthesized using five types of epitope peptides, and their utility was tested.

In test [2] the test system is peripheral blood / PBMCs / peptide-induced CTL lines of HLA-A*24 donors. Briefly: Staining of peripheral blood, PBMCs or peptide-induced CTL lines with MHC-tetramer reagents. The test is classed as cell-based, human. As to conditions: for profile of tetramer-positive cells: donor ID*24-12, peptide-induced cells. As for the experimental part:
MBL Co. where the present inventors are affiliated with has acquired exclusive patent licensing rights in Japan for MHC-tetramer reagents (U.S. Pat. No. 5,635,363; French Application No. FR9911133; and U.S. Pat. Nos. 5,723,584, 5,874,239, 5,932,433, and 6,265,552) from Beckman Coulter Co. Based on the patents, PE-labeled MHC-tetramer reagents were prepared using adenovirus-specific CTL epitope peptides and HLA-A*2402 molecules.
Adenovirus-specific CTLs quantification was carried out using MHC-tetramer reagents that was prepared using CTL epitope peptides of the present invention, with peripheral blood, PBMCs isolated from peripheral blood, CTL lines induced using CTL epitope peptides as samples. Examples of quantification using PE-labeled MHC-tetramer reagents are described below. Labelling dyes may be used in an appropriate combination depending on the type of flow cytometer to be used, and is not limited to the examples described below.
Ten μl of a PE-labeled MHC-tetramer reagent, 20 μl of an FITC-labeled antibody for T cell (for example, CD8, CD4, or CD3), and such were added to 200 μl of collected peripheral blood. A CD45 antibody labeled with PC5 or such may also be added to eliminate nonspecific fluorescence due to contaminated erythrocytes. After gentle mixing, the mixture was allowed to stand at room temperature for 30 minutes. OptiLyse B was added, and erythrolysis and fixation was carried out according to the manufacturer's protocol. Two ml of PBS was added, stirred, and the cells were centrifuged at 400×g for 5 minutes. After the supernatant was removed by aspiration, the cells were resuspended in 500 μl of PBS and analyzed using a flow cytometer within 24 hours.
Ten μl of a PE-labeled MHC-tetramer reagent, 20 μl of an FITC-labeled T cell surface antibody (for example, CD8, CD4, or CD3), and such were added to an appropriate amount of PBMCs (10^5 to 10^6 cells) or a CTL line induced by use of CTL epitope peptides. A CD45 antibody labeled with PC5 or such may also be added to eliminate nonspecific fluorescence due to contaminated erythrocytes. After gentle mixing, the cells were allowed to stand at room temperature for 30 minutes. Three ml of PBS was added, stirred, and the cells were centrifuged at 400×g for 5 minutes. After the supernatant was removed by aspiration, the cells were resuspended in 500 μl of PBS. When a CTL line is used, 7-AAD Viability Dye (Non-viable cell detection reagent; MBL Co.) may be added to eliminate nonspecific fluorescence caused by non-viable cells. The cells were analyzed using a flow cytometer within 24 hours.
The results of staining obtained using the five types of MHC-tetramer reagents used to prepare the peptide-induced CTL lines are shown in FIG. 5.

The mark [3] stands for this setting: PBMCs from donor ID*24-14 after 24 days of stimulation with LYA.

No end group written: not given here.

As to DYLSAANML, the “CD8-positive, IFNγ-positive (producing) cells in UR” value in test [1] (donor *24-12, restimulation with the same peptide as used in the induction, % in PBMCs) worked out at 0.49%. Further, the “specific CTL induction, cytokine quantification method” value in test [1] (donor ID *24-1) was “∘”; in test [1] (donor ID *24-2), “∘”; in test [1] (donor ID *24-3), “x”; in test [1] (donor ID *24-5), “x”; in test [1] (donor ID *24-8) it was “x”; in test [1] (donor ID *24-10), “∘”. Further, the “specific CTL induction, cytokine quantification method” value in test [1] (donor ID *24-11) was “x”; in test [1] (donor ID *24-12), “∘”; in test [1] (donor ID *24-13) it was “x”; in test [1] (donor ID *24-14), “x”. In addition, in test [1] (donor ID*24-12, FIG. 3e-h), the “specific CTL induction confirmed by CD8-positive, IFNγ-positive cells versus HIV peptide” value was “specific CTL induction was confirmed”. Further, the “peptide-specific cytokine production in PBMCs derived from ten people with HLA-A*24 molecule” value in test [1] was “induce cytokine production in a peptide-specific manner”. Also, the “number of persons with peptide-specific IFNγ production / CTL induction” value in test [1] (ten persons tested) is “four of the ten persons”.

In the case of GYKDRMYSF, the “specific CTL induction, cytokine quantification method” value was “x” in test [1] (donor ID *24-1); “x” in test [1] (donor ID *24-2); “x” in test [1] (donor ID *24-3); “x” in test [1] (donor ID *24-5); “∘” in test [1] (donor ID *24-8); “x” in test [1] (donor ID *24-10). The “specific CTL induction, cytokine quantification method” value in test [1] (donor ID *24-11), in test [1] (donor ID *24-12), in test [1] (donor ID *24-13) and in test [1] (donor ID *24-14) was “x” each time. In addition, the “specific CTL induction confirmed by CD8-positive, IFNγ-positive cells versus HIV peptide” value in test [1] (donor ID*24-8, FIG. 3a-d) is “induced specific CTLs”. Also, the “peptide-specific cytokine production in PBMCs derived from ten people with HLA-A*24 molecule” value in test [1] is “induce cytokine production in a peptide-specific manner”.

With “HLA-A*2402 DYLSAANML (Seq Id No: 1) Tetramer Reagent [DYL-Tet]”, the “profile of tetramer-positive cells” value in test [2] is given as “no relevant profile”.

On to “HLA-A*2402 LYANSAHAL (Seq Id No: 2) Tetramer Reagent [LYA-Tet]”, for which, in test [2] (setting [3]), the “CD3-positive, LYA-Tet-positive cells” value is 1.13%; the “CD4-positive, LYA-Tet-positive cells” value came to 0.09%; the “CD8-positive, LYA-Tet-positive cells” value was 0.18%. Further, the “population of CD8-negative, tetramer reagent-positive cells in the UL” value in test [2] (peptide-induced CTL lines, FIG. 5, VYS-Tet: donor ID*24-1, *24-3, *24-11, *24-12, *24-14) is given as “detected”.

As to “HLA-A*2402 LYSNVALYL (Seq Id No: 5) Tetramer Reagent [LYS-Tet]”, the “profile of tetramer-positive cells” value in test [2] is listed as “no relevant profile”.

Consider KYTPSNVTL, for which the “specific CTL induction, cytokine quantification method” value in test [1] (donor ID *24-1), in test [1] (donor ID *24-2), in test [1] (donor ID *24-3), in test [1] (donor ID *24-5), in test [1] (donor ID *24-8) and in test [1] (donor ID *24-10) was “x” throughout. The “specific CTL induction, cytokine quantification method” value in test [1] (donor ID *24-11), in test [1] (donor ID *24-12), in test [1] (donor ID *24-13) and in test [1] (donor ID *24-14) was “x” throughout.

Consider NYIGFRDNF, for which the “specific CTL induction, cytokine quantification method” value in test [1] (donor ID *24-1), in test [1] (donor ID *24-2), in test [1] (donor ID *24-3), in test [1] (donor ID *24-5), in test [1] (donor ID *24-8) and in test [1] (donor ID *24-10) was “x” each time. Besides, the “specific CTL induction, cytokine quantification method” value in test [1] (donor ID *24-11), in test [1] (donor ID *24-12), in test [1] (donor ID *24-13) and in test [1] (donor ID *24-14) was “x” in each case.

Consider NYNIGYQGF, for which the “specific CTL induction, cytokine quantification method” value in test [1] (donor ID *24-1), in test [1] (donor ID *24-2), in test [1] (donor ID *24-3), in test [1] (donor ID *24-5), in test [1] (donor ID *24-8) and in test [1] (donor ID *24-10) was “x” throughout. For the same substance, the “specific CTL induction, cytokine quantification method” value in test [1] (donor ID *24-11), in test [1] (donor ID *24-12), in test [1] (donor ID *24-13) and in test [1] (donor ID *24-14) was “x” throughout.

“RYLRDQQLL [HIV peptide, reference compound]”: the “CD8-positive, IFNγ-positive cells in UR” value is on record as 0.62% in test [1] (donor *24-8) and 0.18% in test [1] (donor *24-12).

With SYQLLLDSL, the “specific CTL induction, cytokine quantification method” value in test [1] (donor ID *24-1), in test [1] (donor ID *24-2), in test [1] (donor ID *24-3), in test [1] (donor ID *24-5), in test [1] (donor ID *24-8) and in test [1] (donor ID *24-10) was “x” each time. Also, the “specific CTL induction, cytokine quantification method” value in test [1] (donor ID *24-11), in test [1] (donor ID *24-12), in test [1] (donor ID *24-13) and in test [1] (donor ID *24-14) was “x” each time.

The values are drawn from patent publication US20090142363A1, “CYTOTOXIC T-CELL EPITOPE PEPTIDE AND USE THEREOF” (priority 2005, published 2009).
